The target in assay [1] is T1, Estrogen receptor (Homo sapiens, UniProt Q92731+P03372). Kind of assay: Inhibition of ER+ MCF-7 breast cancer cell proliferation over 200 hr. Conditions: cancer cell lines.
Assay [2] deals with T1, Estrogen receptor. As to the kind of experiment: Inhibition of 10e-9 M E2 stimulated MCF-7 breast cancer cell proliferation. Format: functional, cell-based. Particulars: cancer cell lines.
Assay [3] concerns the target T1, Estrogen receptor. Conditions: Cancer cell lines, at 5 µM.
Description: Inhibition of ER-MDA-MB 231 breast cancer cell proliferation over 96 hr at 5 uM
Assay [4] addresses T1, Estrogen receptor. Conditions: Cancer cell lines, at 10 µM.
Description: Inhibition of ER-MDA-MB 231 breast cancer cell proliferation over 96 hr at 10 uM
In assay [5] the target is T1, Estrogen receptor. Kind of assay: Inhibition of 10e-9 M E2 stimulated transcriptional activation in ER+MCF-7/2a breast cancer cells. It is filed as functional, cell-based. Particulars: cancer cell lines.

For orientation: IC50 means the concentration at which inhibition is half-maximal.

For `CC/C(=C(/CCCCCCN(C)CCCSCCCC(F)(F)C(F)(F)F)c1ccc(O)cc1)c1ccc(O)cc1`, the IC50 in assay [1] was determined as 0.22 nM; in assay [2] it was 7 nM; in assay [5] it was 10 nM. The T/C in assay [3] and in assay [4] was -15% throughout.

As to `CCCCCSCCCCCCCCCC/C(=C(/CC)c1ccc(O)cc1)c1ccc(O)cc1`, the IC50 in assay [2] stood at 1400 nM; in assay [5], 790 nM.

`C[C@]12CC[C@@H]3c4ccc(O)cc4C[C@@H](CCCCCCCCC[S+]([O-])CCCC(F)(F)C(F)(F)F)[C@H]3[C@@H]1CC[C@@H]2O` (some centres not stated): the T/C in assay [3] amounted to 93%; in assay [4], 95%.

For `CCCCCS(=O)(=O)CCCCCCCCCC/C(=C(/CC)c1ccc(O)cc1)c1ccc(O)cc1`, the 50% inhibitory concentration (IC50) is 5.1 nM in assay [1], 100 nM in assay [2] and 130 nM in assay [5]. Besides, the T/C in assay [3] is 94%; in assay [4] it was -4%.

Take `CCCCCS(=O)(=O)CCCCCCCCCC/C(=C(/CC)c1ccc(O)cc1)c1cccc(O)c1`: the half-inhibitory concentration (IC50) was determined as 49 nM in assay [1], 270 nM in assay [2] and 370 nM in assay [5]. In addition, the T/C in assay [3] is 96%; in assay [4] it was -7%.

As to `CCCCCSCCCN(C)C(=O)CCCCC/C(=C(/CC)c1ccc(O)cc1)c1ccc(O)cc1`, the IC50 in assay [2] was 1900 nM; in assay [5] it was 600 nM.

On to `CCCCCSCCCCCCCCCC/C(=C(/CC)c1cccc(O)c1)c1ccc(O)cc1`, for which the 50% inhibitory concentration (IC50) in assay [2] worked out at 590 nM; in assay [5], 200 nM.

On to `CCCCCSCCCN(C)CCCCCC/C(=C(/CC)c1ccc(O)cc1)c1ccc(O)cc1`, for which the half-maximal inhibitory concentration (IC50) in assay [1] is 0.75 nM; in assay [2] it was 10 nM; in assay [5] it was 10 nM. For the same molecule, the results for the T/C in assay [3] and in assay [4] were 75% and -25%, respectively.

With `CC/C(=C(/CCCCCC(=O)N(C)CCCSCCCC(F)(F)C(F)(F)F)c1ccc(O)cc1)c1ccc(O)cc1`, the IC50 in assay [2] was found to be 700 nM; in assay [5], 310 nM.

For `CCCCCS(=O)(=O)CCCCCCCCCC/C(=C(/CC)c1cccc(O)c1)c1ccc(O)cc1`, the IC50 in assay [1] amounted to 6.1 nM; in assay [2], 110 nM; in assay [5] it was 50 nM. The T/C turned out to be 90% in assay [3] and 32% in assay [4].

For `CCCCCSCCCCCCCCCC/C(=C(/CC)c1ccc(O)cc1)c1cccc(O)c1`, the IC50 in assay [2] was found to be 2100 nM; in assay [5] it was 1200 nM.

`CCCCCS(=O)(=O)CCCCCCCCCCn1c(-c2ccc(O)cc2)c(C)c2cc(O)ccc21`: the results for the 50% inhibitory concentration (IC50) in assay [1], in assay [2] and in assay [5] were 1.4 nM, 50 nM and 20 nM, respectively. In addition, the T/C was 84% in assay [3] and -2% in assay [4].

For the origin of these results see ChEMBL document CHEMBL1137833, “Synthesis and biological evaluation of stilbene-based pure estrogen antagonists” (Bioorg Med Chem Lett, 2004).
